Data: patent US20240158446A1, “CYCLIC COMPOUND HAVING SELECTIVE INHIBITORY ACTION ON KRAS OVER HRAS AND NRAS” (CHUGAI SEIYAKU KABUSHIKI KAISHA, priority 2021, published 2024)
Read-outs that look alike come from different tables or passages of the source. *1 amine or outer side, *2 acyl side, *3 side chain or, on linkers, in order; H or OH if unused. Where a SMILES comes first, the peptide text is derived from it. Bridges are numbered along the chain shown (N, C = ends). [ ]: non-standard residue; d: D form. The star is where a group is joined. hPhe(3-Cl-4-CF3) = N[C@@H](CCc1ccc(C(F)(F)F)c(Cl)c1)C(=O)O; NEtPhe(4-CF3) = CCN[C@@H](Cc1ccc(C(F)(F)F)cc1)C(=O)O; NEtPhe(4-Me) = CCN[C@@H](Cc1ccc(C)cc1)C(=O)O; NMePhe(4-Me) = CN[C@@H](Cc1ccc(C)cc1)C(=O)O; X7 = CCN([C@H](C(=O)[*:2])C1CCCC1)[*:1]; NMeGly(cPent) = CN[C@H](C(=O)O)C1CCCC1; Hyp = O=C(O)[C@@H]1C[C@@H](O)CN1; NMeF = CN[C@@H](Cc1ccccc1)C(=O)O; NMeD = CN[C@@H](CC(=O)O)C(=O)O; NMeL = CN[C@@H](CC(C)C)C(=O)O; Morpholide = C1CN(*)CCO1; NMeA = CN[C@@H](C)C(=O)O; Ac5c = NC1(C(=O)O)CCCC1; Aze = O=C(O)[C@@H]1CCN1; NEtG = CCNCC(=O)O; Sar = CNCC(=O)O

What was measured:
[1] = biological target: GDP-bound KRAS wild-type protein (Homo sapiens, UniProt P01116); assay: Binding to KRAS by surface plasmon resonance (SPR), Single Cycle Kinetics; settings: GDP-bound KRAS wild-type protein, read-out: KRAS KD
[2] = biological target: GDP-bound NRAS wild-type protein (Homo sapiens, UniProt P01111); assay: Binding to NRAS by surface plasmon resonance (SPR), Single Cycle Kinetics; settings: SPR, GDP-bound NRAS wild-type protein vs GDP-bound KRAS wild-type protein
[3] = biological target: GDP-bound HRAS wild-type protein (Homo sapiens, UniProt P01112); assay: Binding to HRAS by surface plasmon resonance (SPR), Single Cycle Kinetics; settings: for HRAS/KRAS (ratio of KD value for HRAS to KD value for KRAS): SPR, GDP-bound HRAS wild-type protein vs GDP-bound KRAS wild-type protein
[4] = SPR Single Cycle Kinetics, 1:1 binding model

Sequence of GDP-bound NRAS wild-type protein (P01111 whole entry): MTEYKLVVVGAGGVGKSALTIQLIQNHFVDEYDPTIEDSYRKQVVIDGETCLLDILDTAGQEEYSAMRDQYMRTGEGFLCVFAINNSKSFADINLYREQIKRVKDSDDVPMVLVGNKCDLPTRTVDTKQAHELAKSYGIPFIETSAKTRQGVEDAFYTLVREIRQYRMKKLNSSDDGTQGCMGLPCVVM
Sequence of GDP-bound KRAS wild-type protein (P01116 whole entry): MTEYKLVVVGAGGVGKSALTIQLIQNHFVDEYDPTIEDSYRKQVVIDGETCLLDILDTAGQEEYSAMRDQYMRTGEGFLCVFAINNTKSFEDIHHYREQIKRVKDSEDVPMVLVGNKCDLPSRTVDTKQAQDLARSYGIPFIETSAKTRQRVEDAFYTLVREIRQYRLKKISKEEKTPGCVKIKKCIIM
Sequence of GDP-bound HRAS wild-type protein (P01112 whole entry): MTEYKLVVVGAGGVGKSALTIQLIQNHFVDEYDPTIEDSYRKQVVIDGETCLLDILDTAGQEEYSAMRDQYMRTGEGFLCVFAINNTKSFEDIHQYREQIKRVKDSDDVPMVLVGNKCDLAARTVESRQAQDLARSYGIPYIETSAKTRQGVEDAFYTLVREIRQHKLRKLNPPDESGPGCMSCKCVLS

Structure (SMILES)	Kd [1, 4] [nM]	NRAS/KRAS (ratio of KD value for NRAS to KD value for KRAS) [2]	HRAS/KRAS (ratio of KD value for HRAS to KD value for KRAS) [3]	Kd ([1]; SPR, Single Cycle Kinetics, 1:1 binding model) [nM]	HRAS/KRAS (ratio of KD value for HRAS to KD value for KRAS) ([3]; KD ratio class)	HRAS/KRAS (ratio of KD value with respect to GDP-bound HRAS wild-type protein to KD value with respect to KRAS) ([3]; SPR KD ratio HRAS/KRAS, class symbols)	Kd ([1]; SPR, Single Cycle Kinetics) [nM]
CC[C@H](C)[C@@H]1NC(=O)[C@H](CC(C)C)N(C)C(=O)C[C@@H](C(=O)N2CCOCC2)N(C)C(=O)[C@H](C2CCCC2)N(C)C(=O)C2(CCCC2)NC(=O)[C@@H]2CCCN2C(=O)[C@H](CCc2ccc(C(F)(F)F)c(Cl)c2)NC(=O)CN(C)C(=O)[C@H](Cc2ccc(C)cc2)N(C)C(=O)[C@@H]2CCN2C(=O)[C@H](C)N(C)C1=O [PP0001] ([NMeL]I[NMeA][Aze][NMePhe(4-Me)][Sar][hPhe(3-Cl-4-CF3)]P[Ac5c][NMeGly(cPent)][NMeD]-Morpholide; lactam N-11)	0.14	C (A compound having a KD ratio of 0.1 or more and less than 3 is denoted as C)	C (A compound having a KD ratio of 0.1 or more and less than 3 is denoted as C)				
CC[C@H](C)[C@@H]1NC(=O)[C@H](CC(C)C)N(C)C(=O)C[C@@H](C(=O)N2CCOCC2)N(C)C(=O)[C@H](C2CCCC2)N(C)C(=O)C2(CCCC2)NC(=O)[C@@H]2CCCN2C(=O)[C@H](CCc2ccc(C(F)(F)F)c(Cl)c2)NC(=O)CN(C)C(=O)[C@H](Cc2ccc(C(F)(F)F)cc2)N(CC)C(=O)[C@@H]2CCN2C(=O)[C@H](C)N(C)C1=O [PP0002] ([NMeL]I[NMeA][Aze][NEtPhe(4-CF3)][Sar][hPhe(3-Cl-4-CF3)]P[Ac5c][NMeGly(cPent)][NMeD]-Morpholide; lactam N-11)	0.18	C (A compound having a KD ratio of 0.1 or more and less than 3 is denoted as C)	C (A compound having a KD ratio of 0.1 or more and less than 3 is denoted as C)				
CC[C@H](C)[C@@H]1NC(=O)[C@H](CC(C)C)N(C)C(=O)C[C@@H](C(=O)N2CCOCC2)N(C)C(=O)[C@H](C2CCCC2)N(C)C(=O)C2(CCCC2)NC(=O)[C@@H]2CCCN2C(=O)[C@H](CCc2ccc(C(F)(F)F)c(Cl)c2)NC(=O)CN(C)C(=O)[C@H](C2CCCC2)N(CC)C(=O)[C@@H]2CCN2C(=O)[C@H](C)N(C)C1=O [PP0003] ([NMeL]I[NMeA][Aze][X7][Sar][hPhe(3-Cl-4-CF3)]P[Ac5c][NMeGly(cPent)][NMeD]-Morpholide; lactam N-11)	2	C (A compound having a KD ratio of 0.1 or more and less than 3 is denoted as C)	C (A compound having a KD ratio of 0.1 or more and less than 3 is denoted as C)				
CC[C@H](C)[C@@H]1NC(=O)[C@H](CC(C)C)N(C)C(=O)C[C@@H](C(=O)N2CCOCC2)N(C)C(=O)[C@H](C2CCCC2)N(C)C(=O)C2(CCCC2)NC(=O)[C@@H]2CCCN2C(=O)[C@H](CCc2ccc(C(F)(F)F)c(Cl)c2)NC(=O)CN(CC)C(=O)[C@H](Cc2ccc(C)cc2)N(C)C(=O)[C@@H]2CCN2C(=O)[C@H](C)N(C)C1=O [PP0004] ([NMeL]I[NMeA][Aze][NMePhe(4-Me)][NEtG][hPhe(3-Cl-4-CF3)]P[Ac5c][NMeGly(cPent)][NMeD]-Morpholide; lactam N-11)	2.4	C (A compound having a KD ratio of 0.1 or more and less than 3 is denoted as C)	C (A compound having a KD ratio of 0.1 or more and less than 3 is denoted as C)				
CC[C@H](C)[C@@H]1NC(=O)[C@H](CC(C)C)N(C)C(=O)C[C@@H](C(=O)N2CCOCC2)N(C)C(=O)[C@H](C2CCCC2)N(C)C(=O)C2(CCCC2)NC(=O)[C@@H]2CCCN2C(=O)[C@H](CCc2ccc(C(F)(F)F)c(Cl)c2)NC(=O)CN(CC)C(=O)[C@H](Cc2ccc(C)cc2)N(CC)C(=O)[C@@H]2CCN2C(=O)[C@H](C)N(C)C1=O [PP0006] ([NMeL]I[NMeA][Aze][NEtPhe(4-Me)][NEtG][hPhe(3-Cl-4-CF3)]P[Ac5c][NMeGly(cPent)][NMeD]-Morpholide; lactam N-11)	1.5	C (A compound having a KD ratio of 0.1 or more and less than 3 is denoted as C)	C (A compound having a KD ratio of 0.1 or more and less than 3 is denoted as C)				
CC[C@H](C)[C@@H]1NC(=O)[C@H](C)N(C)C(=O)C[C@@H](C(=O)N2CCOCC2)N(C)C(=O)[C@H](C2CCCC2)N(C)C(=O)C2(CCCC2)NC(=O)[C@@H]2CCCN2C(=O)[C@H](CCc2ccc(C(F)(F)F)c(Cl)c2)NC(=O)CN(C)C(=O)[C@H](Cc2ccc(C)cc2)N(CC)C(=O)[C@@H]2CCN2C(=O)[C@H](C)N(C)C1=O [PP0007] ([NMeA]I[NMeA][Aze][NEtPhe(4-Me)][Sar][hPhe(3-Cl-4-CF3)]P[Ac5c][NMeGly(cPent)][NMeD]-Morpholide; lactam N-11)	0.074	C (A compound having a KD ratio of 0.1 or more and less than 3 is denoted as C)	C (A compound having a KD ratio of 0.1 or more and less than 3 is denoted as C)				
CC[C@H](C)[C@@H]1NC(=O)[C@H](CC(C)C)N(C)C(=O)C[C@@H](C(=O)N2CCOCC2)N(C)C(=O)[C@H](C2CCCC2)N(C)C(=O)C2(CCCC2)NC(=O)[C@@H]2CCCN2C(=O)[C@H](CCc2ccc(C(F)(F)F)c(Cl)c2)NC(=O)CN(C)C(=O)[C@H](Cc2ccccc2)N(C)C(=O)[C@@H]2CCN2C(=O)[C@H](C)N(C)C1=O [PP0011] ([NMeL]I[NMeA][Aze][NMeF][Sar][hPhe(3-Cl-4-CF3)]P[Ac5c][NMeGly(cPent)][NMeD]-Morpholide; lactam N-11)	0.3	C (A compound having a KD ratio of 0.1 or more and less than 3 is denoted as C)	C (A compound having a KD ratio of 0.1 or more and less than 3 is denoted as C)				
CC[C@H](C)[C@@H]1NC(=O)[C@H](CC(C)C)N(C)C(=O)C[C@@H](C(=O)N2CCOCC2)N(C)C(=O)[C@H](C2CCCC2)N(C)C(=O)C2(CCCC2)NC(=O)[C@@H]2C[C@@H](O)CN2C(=O)[C@H](CCc2ccc(C(F)(F)F)c(Cl)c2)NC(=O)CN(C)C(=O)[C@H](Cc2ccc(C)cc2)N(CC)C(=O)[C@@H]2CCN2C(=O)[C@H](C)N(C)C1=O [PP0013] ([NMeL]I[NMeA][Aze][NEtPhe(4-Me)][Sar][hPhe(3-Cl-4-CF3)][Hyp][Ac5c][NMeGly(cPent)][NMeD]-Morpholide; lactam N-11)	0.073	C (A compound having a KD ratio of 0.1 or more and less than 3 is denoted as C)	C (A compound having a KD ratio of 0.1 or more and less than 3 is denoted as C)				
CCO[C@@H]1C[C@H]2C(=O)NC3(CCCC3)C(=O)N(C)[C@@H](C3CCCC3)C(=O)N(C)[C@H](C(=O)N3CCOCC3)CC(=O)N(C)[C@@H](CC(C)C)C(=O)N[C@@H]([C@@H](C)CC)C(=O)N(C)[C@@H](C)C(=O)N3CC[C@H]3C(=O)N(CC)[C@@H](Cc3ccc(C)cc3)C(=O)N(C)CC(=O)N[C@@H](CCc3ccc(C(F)(F)F)c(Cl)c3)C(=O)N2C1 [PP0014] ([NMeL]I[NMeA][Aze][NEtPhe(4-Me)][Sar][hPhe(3-Cl-4-CF3)][Hyp](Et)[Ac5c][NMeGly(cPent)][NMeD]-Morpholide; lactam N-11)	0.09	C (A compound having a KD ratio of 0.1 or more and less than 3 is denoted as C)	C (A compound having a KD ratio of 0.1 or more and less than 3 is denoted as C)				
CCO[C@@H]1C[C@H]2C(=O)NC3(CCC3)C(=O)N(C)[C@@H](C(CC)CC)C(=O)N3CCC[C@@H]3CC(=O)N(C)[C@@H](CC)C(=O)N[C@@H]([C@@H](C)CC)C(=O)N(C)CC(=O)N(C)[C@H]3C/C=C\CCN(C3=O)[C@@H](Cc3ccc(C(F)(F)F)cc3)C(=O)N(C)CC(=O)N[C@@H](CCc3cc(F)c(C(F)(F)F)c(F)c3)C(=O)N2C1 [PP1607]				0.57	A (a compound having 10 or more and less than 20 is denoted as A)		
CCC[C@H]1C(=O)N[C@@H]([C@@H](C)CC)C(=O)N(C)CC(=O)N(C)[C@H]2C/C=C\CCN(C2=O)[C@@H](Cc2ccc(C)cc2)C(=O)N(C)CC(=O)N[C@@H](CCc2ccc(Cl)c(OC)c2)C(=O)N2C[C@H](OCC)C[C@H]2C(=O)NC2(CC(C)(C)C2)C(=O)N(C)[C@@H](C(CC)CC)C(=O)N(C)[C@H](C(=O)N(C)C)CC(=O)N1C [PP2791]	1.9					A (a compound having 10 or more and less than 20 is denoted as A)	
CCO[C@@H]1C[C@H]2C(=O)NC3(CC(C)(C)C3)C(=O)N(C)[C@@H](C3CCCC3)C(=O)N(C)[C@H](C(=O)N(C)C)CC(=O)N(C)[C@H]3CCCCCCc4ccc(cc4)C[C@@H](C(=O)N(C)CC(=O)N[C@@H](CCc4ccc(C(F)(F)F)c(OC)c4)C(=O)N2C1)N1CC/C=C\C[C@@H](C1=O)N(C)C(=O)CN(C1CC1)C(=O)[C@H]([C@@H](C)CC)NC3=O [PP3070]			B (a compound having 3 or more and less than 10 is denoted as B)				0.17
